# ChEMBL document CHEMBL1201862, “PubChem BioAssay data set” (2004)
#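 Interpolation was linear, between the two tested concentrations surrounding the appropriate level; five concentrations were tested over 48 hours in 96-well plates. GI50 marks 50% less growth.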 The source made the active and inactive calls. Cut-off read from the data, not from the text of the source: active = GI50 up to about 1.1 µM and inactive = higher.
# Legend:
# Test in all cases: NCI tumour cell line growth inhibition, 48 h
# OVCAR-5 = system: OVCAR-5
# OVCAR-8 = system: OVCAR-8
# KM12 = system: KM12
# HOP-92 = system: HOP-92
# A498 = system: A498
# U-251 = system: U-251
# RXF 393 = system: RXF 393
# SF-295 = system: SF-295
# SNB-75 = system: SNB-75
# CCRF-CEM = system: CCRF-CEM
# HOP-62 = system: HOP-62
# SN12C = system: SN12C
# Malme-3M = system: Malme-3M
# SF-268 = system: SF-268
# MOLT-4 = system: MOLT-4
# SK-MEL-2 = system: SK-MEL-2
# HT-29 = system: HT-29
# HCT-15 = system: HCT-15
# ACHN = system: ACHN
# TK-10 = system: TK-10
SMILES,GI50 (OVCAR-5),GI50 (OVCAR-8),GI50 (KM12),GI50 (HOP-92),GI50 (A498),GI50 (U-251),GI50 (RXF 393),GI50 (SF-295),GI50 (SNB-75),GI50 (CCRF-CEM),GI50 (HOP-62),GI50 (SN12C),GI50 (Malme-3M),GI50 (SF-268),GI50 (MOLT-4),GI50 (SK-MEL-2),GI50 (HT-29),GI50 (HCT-15) [µM],GI50 (ACHN),GI50 (TK-10)
CN(C)CCSc1nccc(-c2ccc(-c3ccnc(SCCN(C)C)n3)s2)n1,9.1 µM (inactive),6.1 µM (inactive),4.91 µM (inactive),10.9 µM (inactive),15.1 µM (inactive),12.9 µM (inactive),6.14 µM (inactive),10.7 µM (inactive),14.4 µM (inactive),1.43 µM (inactive),15.9 µM (inactive),6.75 µM (inactive),11.9 µM (inactive),8.17 µM (inactive),0.76 µM (active),13.6 µM (inactive),2.57 µM (inactive),4.65,–,–
C1CCC2(CC1)O[C@@H]1[C@@H](O2)[C@@H](O[C@H]2O[C@@H]3COC4(CCCCC4)O[C@H]3[C@@H]3OC4(CCCCC4)O[C@@H]23)O[C@@H]2COC3(CCCCC3)O[C@@H]12,> 100 µM (inactive),> 100 µM (inactive),> 100 µM (inactive),> 100 µM (inactive),> 100 µM (inactive),> 100 µM (inactive),> 100 µM (inactive),> 100 µM (inactive),> 100 µM (inactive),> 100 µM (inactive),> 100 µM (inactive),> 100 µM (inactive),> 100 µM (inactive),> 100 µM (inactive),23.9 µM (inactive),> 100 µM (inactive),> 100 µM (inactive),–,> 100 µM (inactive),> 100 µM (inactive)
c1ccc(/N=C2/SC3=Nc4cccc5cccc(c45)N3/C2=N/c2ccccc2)cc1,> 100 µM (inactive),> 100 µM (inactive),> 100 µM (inactive),> 100 µM (inactive),> 100 µM (inactive),> 100 µM (inactive),> 100 µM (inactive),> 100 µM (inactive),> 100 µM (inactive),54.1 µM (inactive),> 100 µM (inactive),> 100 µM (inactive),> 100 µM (inactive),–,79.3 µM (inactive),> 100 µM (inactive),> 100 µM (inactive),> 100,–,–
Cc1cc2c(C(C)C)c(O)c(O)c(/C=N/c3ccccc3)c2c(O)c1-c1c(C)cc2c(C(C)C)c(O)c(O)c(/C=N/c3ccccc3)c2c1O,> 100 µM (inactive),> 100 µM (inactive),> 100 µM (inactive),> 100 µM (inactive),–,–,> 100 µM (inactive),> 100 µM (inactive),67.8 µM (inactive),> 100 µM (inactive),> 100 µM (inactive),> 100 µM (inactive),> 100 µM (inactive),> 100 µM (inactive),> 100 µM (inactive),> 100 µM (inactive),> 100 µM (inactive),> 100,> 100 µM (inactive),> 100 µM (inactive)
CSC1NC(c2ccccc2)=C(C#N)C(=O)N1C1OCC(OC(C)=O)C(OC(C)=O)C1OC(C)=O (stereo unspecified),> 100 µM (inactive),> 100 µM (inactive),> 100 µM (inactive),86.3 µM (inactive),> 100 µM (inactive),> 100 µM (inactive),> 100 µM (inactive),> 100 µM (inactive),> 100 µM (inactive),–,> 100 µM (inactive),> 100 µM (inactive),> 100 µM (inactive),> 100 µM (inactive),> 100 µM (inactive),–,> 100 µM (inactive),> 100,> 100 µM (inactive),> 100 µM (inactive)
COc1ccc2c(C)cc(N/N=C/c3sccc3C)nc2c1,13.5 µM (inactive),13.4 µM (inactive),8.05 µM (inactive),16.1 µM (inactive),–,17.9 µM (inactive),14.9 µM (inactive),14.7 µM (inactive),12.1 µM (inactive),39.8 µM (inactive),15.2 µM (inactive),7.11 µM (inactive),6.95 µM (inactive),17.4 µM (inactive),13.5 µM (inactive),15.6 µM (inactive),2.81 µM (inactive),6.03,21.7 µM (inactive),17.1 µM (inactive)
CCOC(=O)NC(=O)c1cn(CCSCCOC(=O)NCCCCCCNC(=O)OCCSCCn2cc(C(=O)NC(=O)OCC)c(=O)[nH]c2=O)c(=O)[nH]c1=O,–,> 100 µM (inactive),–,> 100 µM (inactive),–,> 100 µM (inactive),> 100 µM (inactive),> 100 µM (inactive),> 100 µM (inactive),> 100 µM (inactive),> 100 µM (inactive),> 100 µM (inactive),> 100 µM (inactive),–,–,–,> 100 µM (inactive),> 100,> 100 µM (inactive),> 100 µM (inactive)
NC1(C(=O)O)CCc2ccc(N(CCCl)CCCl)cc2C1 (stereo unspecified),39.9 µM (inactive),> 100 µM (inactive),> 100 µM (inactive),> 100 µM (inactive),> 100 µM (inactive),23.8 µM (inactive),> 100 µM (inactive),29.6 µM (inactive),98.2 µM (inactive),5.32 µM (inactive),22.4 µM (inactive),49.3 µM (inactive),1 µM (active),24.3 µM (inactive),4.74 µM (inactive),38.7 µM (inactive),> 100 µM (inactive),> 100,–,–
